*1 amine or outer side, *2 acyl side, *3 side chain or, on linkers, in order; H or OH if unused. Where a SMILES comes first, the peptide text is derived from it. [ ]: non-standard residue; d: D form. The star is where a group is joined. ξ: configuration not given here. ξLys(Nα-CO-ξAad) = O=C(O)CCCC(NC(=O)NC(CCCCN*)C(=O)O)C(=O)O; Butanoyl(4-(4-NO2Ph)) = O=C(CCCc1ccc([N+](=O)[O-])cc1)*; DOTA = O=C(O)CN1CCN(CC(=O)O)CCN(CC(=O)*)CCN(CC(=O)O)CC1; ξAla(9-anthryl) = NC(Cc1c2ccccc2cc2ccccc12)C(=O)O; X1 = O=C(C1CCC(CN[*:1])CC1)[*:2]; ξK = NCCCCC(N)C(=O)O
System: NRG-mice bearing LNCaP tumors
Test: Biodistribution (and PET/SPECT imaging) in NRG-mice bearing LNCaP tumors
Type: in vivo
Settings: for Biodistribution: Blood / Biodistribution: Bone / Biodistribution: Intestine / Biodistribution: LNCaP tumor / Biodistribution: Liver / Biodistribution: Muscle / Biodistribution: Salivary gland / Biodistribution: Spleen / Biodistribution: Urine / Biodistribution: kidney / Biodistribution: Adrenal gland / Biodistribution: Brain / Biodistribution: Fat / Biodistribution: Heart / Biodistribution: Lacrimal gland / Biodistribution: Lungs / Biodistribution: Pancreas / Biodistribution: Seminal gland / Biodistribution: Stomach / Biodistribution: Testes / Biodistribution: Thyroid: Avg
Procedure, shortened: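 LNCaP xenografts (~10 million cells, left dorsal flank) grown 4-6 weeks to 200-600 mm^3 in NRG mice. Tail-vein injection of 4-6 MBq ^68Ga or 18.5 MBq ^177Lu tracer under isoflurane; CT then 10-min static PET or 1-h SPECT. Biodistribution by gamma counting of weighed organs, expressed as %ID/g.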

## COc1ccc(CCCC(=O)NCC(=O)NC(CCCCNC(=O)CN2CCN(CC(=O)[O-])CCN(CC(=O)[O-])CCN(CC(=O)[O-])CC2)C(=O)NCC2CCC(C(=O)NC(Cc3c4ccccc4cc4ccccc34)C(=O)NCCCCC(NC(=O)NC(CCCC(=O)O)C(=O)O)C(=O)O)CC2)cc1.[177Lu+3] (stereo not drawn) [^177Lu-HTK03170, reference compound]
24 h p.i.
  Biodistribution: Blood: 0.73 % ID/g
  Biodistribution: Bone: 0.18 % ID/g
  Biodistribution: Intestine: 0.18 % ID/g
  Biodistribution: LNCaP tumor: 42.96 % ID/g
  Biodistribution: Liver: 0.49 % ID/g
  Biodistribution: Muscle: 0.10 % ID/g
  Biodistribution: Salivary gland: 0.35 % ID/g
  Biodistribution: Spleen: 0.33 % ID/g
  Biodistribution: Urine: 19.02 % ID/g
  Biodistribution: kidney: 6.06 % ID/g
72 h p.i.
  Biodistribution: Blood: 0.07 % ID/g
  Biodistribution: Bone: 0.19 % ID/g
  Biodistribution: Intestine: 0.08 % ID/g
  Biodistribution: LNCaP tumor: 56.98 % ID/g
  Biodistribution: Liver: 0.27 % ID/g
  Biodistribution: Muscle: 0.15 % ID/g
  Biodistribution: Salivary gland: 0.31 % ID/g
  Biodistribution: Spleen: 0.36 % ID/g
  Biodistribution: Urine: 4.96 % ID/g
  Biodistribution: kidney: 4.30 % ID/g

## O=C([O-])CN1CCN(CC(=O)[O-])CCN(CC(=O)NCCCCC(NC(=O)CNC(=O)CCCc2ccc([N+](=O)[O-])cc2)C(=O)NCC(=O)NCC2CCC(C(=O)NC(Cc3c4ccccc4cc4ccccc34)C(=O)NCCCCC(NC(=O)NC(CCCC(=O)O)C(=O)O)C(=O)O)CC2)CCN(CC(=O)[O-])CC1.[177Lu+3] (stereo not drawn) [^177Lu-CCZ02017] ({Butanoyl(4-(4-NO2Ph))}-G[ξK](DOTA)G[X1][ξAla(9-anthryl)]-{ξLys(Nα-CO-ξAad)})
  LNCaP tumor uptake compared to 177Lu-HTK03170: substantially improved
3 h p.i.
  Biodistribution: Adrenal gland: 3.41 % ID/g
  Biodistribution: Blood: 14.17 % ID/g
  Biodistribution: Bone: 0.78 % ID/g
  Biodistribution: Brain: 0.24 % ID/g
  Biodistribution: Fat: 1.85 % ID/g
  Biodistribution: Heart: 3.24 % ID/g
  Biodistribution: Intestine: 1.03 % ID/g
  Biodistribution: LNCaP tumor: 39.27 % ID/g
  Biodistribution: Lacrimal gland: 0.20 % ID/g
  Biodistribution: Liver: 2.31 % ID/g
  Biodistribution: Lungs: 6.68 % ID/g
  Biodistribution: Muscle: 1.18 % ID/g
  Biodistribution: Pancreas: 2.27 % ID/g
  Biodistribution: Salivary gland: 2.43 % ID/g
  Biodistribution: Seminal gland: 0.93 % ID/g
  Biodistribution: Spleen: 2.25 % ID/g
  Biodistribution: Stomach: 1.55 % ID/g
  Biodistribution: Testes: 6.56 % ID/g
  Biodistribution: Thyroid: 2.87 % ID/g
  Biodistribution: Urine: 97.91 % ID/g
  Biodistribution: kidney: 17.31 % ID/g
24 h p.i.
  Biodistribution: Adrenal gland: 0.61 % ID/g
  Biodistribution: Blood: 0.61 % ID/g
  Biodistribution: Bone: 0.07 % ID/g
  Biodistribution: Brain: 0.03 % ID/g
  Biodistribution: Fat: 0.20 % ID/g
  Biodistribution: Heart: 0.24 % ID/g
  Biodistribution: Intestine: 0.13 % ID/g
  Biodistribution: LNCaP tumor: 89.90 % ID/g
  Biodistribution: Lacrimal gland: 0.04 % ID/g
  Biodistribution: Liver: 0.31 % ID/g
  Biodistribution: Lungs: 0.55 % ID/g
  Biodistribution: Muscle: 0.08 % ID/g
  Biodistribution: Pancreas: 0.11 % ID/g
  Biodistribution: Salivary gland: 0.35 % ID/g
  Biodistribution: Seminal gland: 0.07 % ID/g
  Biodistribution: Spleen: 0.35 % ID/g
  Biodistribution: Stomach: 0.15 % ID/g
  Biodistribution: Testes: 0.48 % ID/g
  Biodistribution: Thyroid: 0.40 % ID/g
  Biodistribution: Urine: 9.85 % ID/g
  Biodistribution: kidney: 5.58 % ID/g
72 h p.i.
  Biodistribution: Adrenal gland: 0.34 % ID/g
  Biodistribution: Blood: 0.07 % ID/g
  Biodistribution: Bone: 0.02 % ID/g
  Biodistribution: Brain: 0.01 % ID/g
  Biodistribution: Fat: 0.15 % ID/g
  Biodistribution: Heart: 0.10 % ID/g
  Biodistribution: Intestine: 0.04 % ID/g
  Biodistribution: LNCaP tumor: 70.84 % ID/g
  Biodistribution: Lacrimal gland: 0.01 % ID/g
  Biodistribution: Liver: 0.23 % ID/g
  Biodistribution: Lungs: 0.16 % ID/g
  Biodistribution: Muscle: 0.02 % ID/g
  Biodistribution: Pancreas: 0.04 % ID/g
  Biodistribution: Salivary gland: 0.14 % ID/g
  Biodistribution: Seminal gland: 0.03 % ID/g
  Biodistribution: Spleen: 0.38 % ID/g
  Biodistribution: Stomach: 0.04 % ID/g
  Biodistribution: Testes: 0.29 % ID/g
  Biodistribution: Thyroid: 0.16 % ID/g
  Biodistribution: Urine: 2.63 % ID/g
  Biodistribution: kidney: 3.21 % ID/g
144 h p.i.
  Biodistribution: Adrenal gland: 0.23 % ID/g
  Biodistribution: Blood: 0.01 % ID/g
  Biodistribution: Bone: 0.02 % ID/g
  Biodistribution: Brain: 0.01 % ID/g
  Biodistribution: Fat: 0.22 % ID/g
  Biodistribution: Heart: 0.04 % ID/g
  Biodistribution: Intestine: 0.01 % ID/g
  Biodistribution: LNCaP tumor: 116.43 % ID/g
  Biodistribution: Lacrimal gland: 0.00 % ID/g
  Biodistribution: Liver: 0.09 % ID/g
  Biodistribution: Lungs: 0.08 % ID/g
  Biodistribution: Muscle: 0.01 % ID/g
  Biodistribution: Pancreas: 0.01 % ID/g
  Biodistribution: Salivary gland: 0.05 % ID/g
  Biodistribution: Seminal gland: 0.01 % ID/g
  Biodistribution: Spleen: 0.37 % ID/g
  Biodistribution: Stomach: 0.02 % ID/g
  Biodistribution: Testes: 0.15 % ID/g
  Biodistribution: Thyroid: 0.11 % ID/g
  Biodistribution: Urine: 1.88 % ID/g
  Biodistribution: kidney: 1.98 % ID/g
240 h p.i.
  Biodistribution: Adrenal gland: 0.02 % ID/g
  Biodistribution: Blood: 0.00 % ID/g
  Biodistribution: Bone: 0.01 % ID/g
  Biodistribution: Brain: 0.00 % ID/g
  Biodistribution: Fat: 0.06 % ID/g
  Biodistribution: Heart: 0.01 % ID/g
  Biodistribution: Intestine: 0.01 % ID/g
  Biodistribution: LNCaP tumor: 95.45 % ID/g
  Biodistribution: Lacrimal gland: 0.00 % ID/g
  Biodistribution: Liver: 0.06 % ID/g
  Biodistribution: Lungs: 0.14 % ID/g
  Biodistribution: Muscle: 0.01 % ID/g
  Biodistribution: Pancreas: 0.00 % ID/g
  Biodistribution: Salivary gland: 0.01 % ID/g
  Biodistribution: Seminal gland: 0.00 % ID/g
  Biodistribution: Spleen: 0.50 % ID/g
  Biodistribution: Stomach: 0.01 % ID/g
  Biodistribution: Testes: 0.08 % ID/g
  Biodistribution: Thyroid: 0.03 % ID/g
  Biodistribution: Urine: 0.43 % ID/g
  Biodistribution: kidney: 0.46 % ID/g

From patent US20250186627A1, “RADIOLABELED COMPOUNDS TARGETING THE PROSTATE-SPECIFIC MEMBRANE ANTIGEN” (PROVINCIAL HEALTH SERVICES AUTHORITY, priority 2022, published 2025)
